Measured values reported in patent US20260263551A1, “TREATING CONDITIONS WITH HYPOGLYCEMIA ASSOCIATED WITH HYPERINSULINEMIA” (RESILIUN B.V., priority 2022, published 2026).
Where a SMILES comes first, the peptide text is derived from it.

Assays:
[1] = test system: mTOR; conditions: piglets; cited from earlier work
[2] = test system: human pulmonary microvascular endothelial cells (Hpmec); experiment: Microvascular angiogenesis (sprouting) assay in Matrigel; assay type: cell-based; conditions: t=16, 24 and 40h (P=0.48, 0.011 and 0.032)
Description: Microvascular angiogenesis assay of human pulmonary microvascular endothelial cells grown in Matrigel as determinant of ERC-reactivity and in response to increasing concentrations of GXXP-peptides 3, 6 and 8, (VGVAPGVGVAPGVGVAPG, QVGQVELGGGPGAGSLQP and GAYPGAPGAYPGAPAPGV, taken from the exon 24 region of human elastin, from the mid-portion of human C-peptide, and from the N-terminal portion of human Galectin-3, FIGS. 4a, 4b and 4c, respectively). Data shown are total tube length measurements and total branch length measurements at t=24 h. * p<0.05; ** p<0.01; *** p<0.001. At 4 h no angiogenic activity of the various peptides was as yet observed.
As measuring insulin resistance in vitro is a cumbersome feat, the effect of three elastin fragment peptides and related GXXP-peptides on endothelial cell sprouting were assessed instead. Endothelial cells (Hpmec, n=4) were serum starved for 24 hours, trypsinised and seeded in growth factor-reduced Matrigel. […] Sprouting by means of mean total tube length and mean total branch length per field of view were quantified with ImageJ software. […]
Pictures were analyzed using the plug-in angiogenesis analyzer in ImageJ. […]

[3] = test system: Na+, K+-ATPase; conditions: cited from earlier work
[4] = in vivo; cited from earlier work
[5] = test system: Na+, K+-ATPase; conditions: rat renal tubular segments; peptides tested at 5×10^-7 mol/l; cited from earlier work
[6] = test system: Na+, K+-ATPase; conditions: purified preparation of Na+,K+-ATPase; cited from earlier work
[7] = test system: human skin fibroblast; conditions: cited from earlier work
[8] = test system: fibroblasts and monocytes; conditions: cited from earlier work
[9] = single infusion, healthy adults; cited from earlier work
[10] = infants >2 years of age; cited from earlier work

C[C@H](N)C(=O)N[C@@H](CCC(N)=O)C(=O)O [AQ, Alanyl-glutamine] (H-Ala-Gln-OH)
autophagy / mTOR modulation [1]: autophagy-inhibition

CC(=O)N[C@H]1[C@H]([C@H](O)[C@H](O)CO)OC(C(=O)O)=C[C@@H]1O [DANA, 2,3-dehydro-2-deoxy-N-acetylneuraminic acid]
effect on the angiogenic effects of peptide 3 [2]: significantly potentiated

CN(C)CCCn1cc(C2=C(c3c[nH]c4ccccc34)C(=O)NC2=O)c2ccccc21 [G F109203X]
effect on C-peptide stimulation of 86Rb+ uptake ([3]; 1 μM preincubation, PKC inhibitor): abolished

COc1cccc(-c2cc(=O)c3ccccc3o2)c1N [PD98059]
effect on C-peptide-stimulated Na+,K+-ATPase activation, α1-subunit phosphorylation and translocation to BLM ([3]; 20 μM, MEK1/2 inhibitor): abolished

C[C@@H](O)[C@@H]1NC(=O)[C@H](CCCCN)NC(=O)[C@@H](Cc2c[nH]c3ccccc23)NC(=O)[C@H](Cc2ccccc2)NC(=O)[C@@H](NC(=O)[C@H](N)Cc2ccccc2)CSSC[C@@H](C(=O)N[C@H](CO)[C@@H](C)O)NC1=O [octreotide]
half-life [4]: around 100 min

EGSLQ
activity relative to intact C-peptide [5]: 75% | activity relative to the intact molecule ([3]; HRTCs): 57%

ELGGGPEAG [PG-domain peptide of rat C-peptide 1]
direct activation of isolated ATPase [6]: No measurable activation

EVARQ
activity relative to intact C-peptide [5]: 100% | direct activation of isolated ATPase [6]: No measurable activation

VGVAPG [Chemotactic Domain of Elastin, Bachem product number 4010536]
fibroblast proliferation [7]: stimulated human skin fibroblast proliferation | chemotactic activity [8]: chemotactic for fibroblasts and monocytes

human C-peptide: cleavage product of the proinsulin molecule (RREAEDLQVGQVELGGGPGAGSLQPLALEGSLQKR)
stimulation of 86Rb+ uptake ([3]; 5 nM, 37° C., 10 min, HRTCs): 40%

B1: XOMA 358: antibody XOMA 358 (aka RZ358), monoclonal antibody given by infusion (antibody, chains of the INN, looked up, V domains shown)
VH: EVQLVETGGGVVQPGRSLRLSCAASGFTFSSYAMHWVRQAPGKGLEWYAVISYDGSNKYYADSVKGRFTISRDNSKNTLYLQMNSLRAEDTAVYYCARHEWGFGMDVWGQGTTVTVSS
VL: DVVMTQSPLSLSVTLGQPASISCRSSLSLVYGDENTYLNWFQQRPGQSPRRLLYKVSDRDSGVPDRFSGSGSGTDFTLKISRVEADDVGVYYCMQGTHWPYTFGQGTKLEIK
insulin sensitivity [9]: dose-dependent reduction in insulin sensitivity | hypoglycemia [10]: reduction of hypoglycemia
